US20070173787A1, “Thin-film nitinol based drug eluting stent” (priority 2005, published 2007)
Each block holds one compound with its values, some of them ahead of it.

What was measured:
[1] = tested on: elastase-induced abdominal aortic aneurysms; assay: Elastase-induced rat model of abdominal aortic aneurysm; assay type: in vivo; conditions: 15 mg/kg/day; for inhibition of aortic dilatation induced by elastase perfusion: vs saline, FIG. 77
Description: The following example is provided to assist in a further understanding of the present invention. The particular materials and conditions employed are intended to be further illustrative of the invention and are not limiting upon the reasonable scope thereof Male Wistar rats (350-400 g) were subjected to perfusion of an isolated segment of the infrarenal abdominal aorta with 50 units of porcine pancreatic elastase, using the method described by Anidjar et al. (Anidjar, S. Salzmann, J L, Generic, D, Lagneau, P, Camilleri, J P, and Michel, J B, “Elastase induced experimental aneurysms in rats,” Circulation 82:973-981 (1990); Halpern et al. (Halpern, V J. Liao, Nackman, G B, Gandhi, R H, Irizarry, E, Scholes, J V, Ramey, W G, and Tilson, M D, “The elastase infusion model of experimental aortic aneurysms: Synchrony of induction of endogenous protinases with matrix destruction and inflammatory cell response, “J. Vasc. Surg. […] Surg 23:336-346(1996)). This method is an accepted model for experimental induction of abdominal aortic aneurysms. The animals (n=6 rats in each group) were then treated with twice-daily subcutaneous injections of either saline vehicle (control), or various doses of doxycycline (Dox) or one of four different, non-antibiotic, chemically-modified tetracyclines (CMTs; CollaGenex, Inc., Newtown, Pa.). Aortic diameter (AD) was measured with microcalipers before and after elastase perfusion, and just prior to sacrifice on day 7. Abdominal aortic aneurysms were defined as an increase in final AD to at least twice that measured before perfusion (≥100% increase). Aortic tissues from two animals in each group were perfusion-fixed with 10% neutral buffered formalin, embedded in paraffin, and stained with Verhoeff-van Geisen (VVG) for elastin. Tissues from the remaining animals were extracted, normalized to total protein, and analyzed by gelatin substrate zymography as described (Thompson et al. 1995; Halpern et al. 1994; Petrinec 1996).

[2] = Liquid formulations of water insoluble rapamycins: concentration (HPLC) and visual observation; assay type: physicochemical
Description: In accordance with exemplary embodiments of the present invention, a series of liquid formulations were developed for the local or regional delivery of water insoluble compounds such as sirolimus and its analogs, including CCI-779, ABT-578 and everolimus, through weeping balloons and catheter injection needles. […] These liquid formulations increase the apparent solubility of the pharmacologically active but water insoluble compounds by two to four orders. of magnitude as compared to the solubility limits of the compounds in water. These liquid formulations rely on the use of a very small amount of organic solvents such as Ethanol (typically less than two percent) and a larger amount of safe-amphiphilic (of or relating to a molecule having-a polar; water soluble group attached to a non-polar, water insoluble […]) excipients such as polyethylene glycol (PEG 200, PEG 400) and vitamin E TPGS to enhance the solubility of the compounds. These liquid formulations of highly. water insoluble compounds are stable and readily flowable at room temperature. Certain excipients, such as Vitamin E TPGS and BHT may be utilized to enhance the storage stability of sirolimus compounds through their anti-oxidation properties. […]

[3] = In vivo release kinetics from stent coatings in porcine pharmacokinetics studies
Description: The topcoat is two hundred micro grams.
The basecoat is applied to Bx Velocity® stents and implanted into Yorkshire pigs.
Another critical parameter for the performance of the thrombus resistance of a device coated with cilostazol is the duration of the drug release from the coating. This is of particular significance in the two weeks after device implantation. […] The purpose of the porcine PK study is to assess the local pharmacokinetics of a drug eluting stent at a given implantation time. Normally three stents are implanted in three different coronary arteries in a pig for a given time point and then retrieved for total drug recovery analysis. The stents are retrieved at predetermined time points; namely, 1, 3 and 8 days. The stents are extracted and the total amount of drug remaining on the stents is determined by analysis utilizing HPLC (high performance liquid chromatography) for total drug amount. The difference between the original amount of drug on the stent and the amount of drug retrieved at a given time represents the amount of drug released in that period. The continuous release of drug into surrounding arterial tissue is what prevents the neointimal growth and restenosis in the coronary artery. A normal plot represents the percentage of total drug released (%, y-axis) vs. time of implantation (day, x-axis). […] In this exemplary configuration, the stent 8600 is coated with two layers. The first layer 8602 comprises a combination of sirolimus, cilostazol and a copolymer matrix of EVA/BMA. The second layer or diffusion overcoat 8604 comprises only BMA. More specifically, in this embodiment, the first layer 8602 comprises a combination of sirolimus and cilastazol that is forty-five (45) percent by weight of the total weight of the first layer 8602 and an EVA/BMA copolymer matrix that is fifty-five (55) percent by weight of the total weight of the first layer 8602. The diffusion overcoat comprises one hundred (100 μg) micrograms of BMA.
Pigs are an established animal species for intravascular stent studies and accepted for such studies by the appropriate regulatory agencies. This in vivo study utilized male pigs of the species Sus Scrofa and strain Yoorkshire pigs. S.M.A.R.T.™ stents, available from Cordis Corporation, were placed into the iliac and femoral arteries, PALMAZ® GENESIS™ stents, available from Cordis Corporation, were placed in the renal arteries and CYPHER™ stents, available from Cordis Corporation, were placed in the coronary arteries.

[4] = tested on: human coronary artery smooth muscle cells; assay: Anti-proliferative activity in non-synchronized cultured human coronary artery smooth muscle cells stimulated with two percent fetal bovine serum; assay type: cell-based; conditions: for effect of addition on the anti-proliferative rapamycin dose response curve: mycophenolic acid zero to one thousand nanomolar (FIG. 52), cladribine zero to nine hundred nanomolar (FIG. 57)
Description: The multiple curves represent various concentrations of mycophenolic acid ranging from zero to one thousand nanomolar concentrations.
FIG. 58 illustrates, in graphical format, the anti-proliferative activity of cladribine in non-synchronized cultured human coronary artery smooth muscle cells stimulated with two percent fetal bovine serum.
The multiple curves represent various concentrations of cladribine ranging from zero to nine hundred nanomolar concentrations.

[5] = Cell viability assay (cytotoxicity); assay type: cell-based
Description: (§1) The multiple curves represent various concentrations of topotecan ranging from zero to three hundred nanomolar concentrations.
(§2) The multiple curves represent various concentrations of etoposide ranging from zero to eight hundred nanomolar concentrations.

[6] = tested on: human coronary artery smooth muscle cells; assay: Anti-proliferative activity in synchronized cultured human coronary artery smooth muscle cells stimulated with two percent fetal bovine serum; assay type: cell-based; conditions: topotecan to 300 nanomolar (FIG. 64), etoposide to eight hundred nanomolar (FIG. 65), Panzem to 100 micromolar (FIG. 68)
Description: as §1, §2
The multiple curves represent various concentrations of Panzem® ranging from zero to 100 micromolar concentrations.

tumor cell lines = conditions: cited from earlier work
[7] = tested on: human coronary artery smooth muscle cell; assay: In vitro cell culture study of human coronary artery smooth muscle cell proliferation (trichostatin A); assay type: cell-based
Description: FIG. 51 is a graph of the inhibition of coronary artery smooth muscle cells by trichostatin A in a cell culture study.

Compound: 4-dedimethylamino-12a-deoxytetracycline [CMT-7]
relative efficacy in suppressing aneurysmal dilatation compared to Dox at the same dose [1]: 92% | inhibition of aortic dilatation induced by elastase perfusion [1]: statistically significant

concentration in the final solution (HPLC assay) ([2]; ethanol (less than two percent), Vitamin E TPGS and water): 15000 µg/mL
Compound: CO[C@H]1C[C@@H]2CC[C@@H](C)[C@@](O)(O2)C(=O)C(=O)N2CCCC[C@H]2C(=O)O[C@H]([C@H](C)C[C@@H]2CC[C@@H](OC(=O)C(C)(CO)CO)[C@H](OC)C2)CC(=O)[C@H](C)/C=C(\C)[C@@H](O)[C@@H](OC)C(=O)[C@H](C)C[C@H](C)/C=C/C=C/C=C/1C [CCl-779]

Compound: NC(=O)C1=C(O)C[C@@H]2C[C@@H]3Cc4cccc(O)c4C(=O)C3=C(O)[C@]2(O)C1=O [CMT-3, 6-demethyl-6-deoxy-4-dedimethylaminotetracycline]
relative efficacy in suppressing aneurysmal dilatation compared to Dox at the same dose [1]: 92% | inhibition of aortic dilatation induced by elastase perfusion [1]: statistically significant

Compound: CC1(O)c2c(Cl)ccc(O)c2C(=O)C2=C(O)C3(O)C(=O)C(C(N)=O)=C(O)CC3CC21 (centres unmarked) [CMT-4, 4-dedimethylamino-7-chlorotetra-cycline]
relative efficacy in suppressing aneurysmal dilatation compared to Dox at the same dose [1]: 75% | inhibition of aortic dilatation induced by elastase perfusion [1]: did not reach statistical significance

Compound: C[C@H]1c2cccc(O)c2C(O)=C2C(=O)[C@]3(O)C(O)=C(C(N)=O)C(=O)C[C@@H]3[C@@H](O)[C@@H]21 [CMT-8, 6-α-deoxy-5-hydroxy-4-dedimethylaminotetracycline]
relative efficacy in suppressing aneurysmal dilatation compared to Dox at the same dose [1]: 105% | inhibition of aortic dilatation induced by elastase perfusion [1]: statistically significant

in vivo elution from the polymeric stent coating, comparison ([3]; EVA/BMA basecoat with rapamycin and cladribine, BMA topcoat, FIGS. 62, 63): elutes more rapidly than rapamycin
Compound: Nc1nc(Cl)nc2c1ncn2[C@H]1C[C@H](O)[C@@H](CO)O1 [Cladribine, 2-chlorodeoxyadenosine]
inhibition of human coronary artery smooth muscle cell proliferation ([4]; FIG. 58): completely inhibits | effect of addition on the anti-proliferative rapamycin dose response curve [4]: potentiate the anti-proliferative activity of rapamycin

Compound: COc1cc([C@@H]2c3cc4c(cc3[C@@H](O[C@@H]3O[C@@H]5CO[C@@H](C)O[C@H]5[C@H](O)[C@H]3O)[C@H]3COC(=O)[C@H]23)OCO4)cc(OC)c1O [etoposide]
cytotoxicity in cell viability assay ([5]; at concentrations up to ten micromolar): non-cytotoxic | effect of addition on the anti-proliferative rapamycin dose response curve [6]: increases the percent inhibition of rapamycin alone

Compound: COc1c(C)c2c(c(O)c1C/C=C(\C)CCC(=O)O)C(=O)OC2 [mycophenolic acid]
in vivo release from the basecoat, comparison ([3]; EVA/BMA basecoat with rapamycin and mycophenolic acid, BMA topcoat, FIGS. 53, 54): elutes more completely over a shorter duration than the rapamycin | effect of addition on the anti-proliferative rapamycin dose response curve [4]: potentiates the anti-proliferative activity of rapamycin

concentration relative to the solubility of sirolimus in water ([2]; 4 mg/ml PEG 200 formulation): four hundred to about one thousand | peak elution release at three days ([3]; PVDF/HFP (60/40) and rapamycin basecoat with 167 microgram PVDF/HFP topcoat, curve 4902): greater than seventy-five | peak elution release at three days ([3]; PVDF/HFP (60/40) and rapamycin basecoat with 490 microgram BMA topcoat, curve 4912): less than fifty | drug remaining in the drug coating ([3]; after eight (8) days of implantation, single layer sirolimus/cilostazol EVA/BMA coating with 100 μg BMA overcoat (FIG. 86), FIG. 84): ~80%
Compound: CO[C@H]1C[C@@H]2CC[C@@H](C)[C@@](O)(O2)C(=O)C(=O)N2CCCC[C@H]2C(=O)O[C@H]([C@H](C)C[C@@H]2CC[C@@H](O)[C@H](OC)C2)CC(=O)[C@H](C)/C=C(\C)[C@@H](O)[C@@H](OC)C(=O)[C@H](C)C[C@H](C)/C=C/C=C/C=C/1C [rapamycin]
in vivo release rate, comparison ([3]; PVDF basecoat with rapamycin and mycophenolic acid, PVDF topcoat, FIG. 56): slower release rate than that of mycophenolic acid

Compound: CC[C@@]1(O)C(=O)OCc2c1cc1n(c2=O)Cc2cc3c(CN(C)C)c(O)ccc3nc2-1 [topotecan]
cytotoxicity in cell viability assay ([5]; at concentrations up to one micromolar): non-cytotoxic | effect of addition on the anti-proliferative rapamycin dose response curve [6]: potentiate the anti-proliferative activity of rapamycin

Compound: CC(/C=C/C(=O)NO)=C\[C@@H](C)C(=O)c1ccc(N(C)C)cc1 [trichostatin A]
anti-proliferative IC50 (tumor cell lines): low nM range | IC50 ([7]; human coronary artery smooth muscle cell proliferation, read-out: anti-proliferative IC50): ~6 nM | inhibition of human coronary artery smooth muscle cell proliferation ([7]; in vitro cell culture): completely inhibit
